What was measured:
[1] = system: CH1/PA-1 (ovarian teratocarcinoma) cells; test: MTT cytotoxicity assay, CH1/PA-1 monolayer; type: cell-based, human; conditions: exposure time 96 h, mean ± SD
Method: (§1) CH1/PA-1 (ovarian teratocarcinoma), SW480 (colon carcinoma) and A549 (non-small cell lung cancer) cells were maintained as described in the reference. IMR-90 human fetal lung fibroblasts (from the European Collection of Authenticated Cell Cultures, Porton Down, Salisbury, UK) were cultured in Stable Cell^TM DMEM/F12 supplemented with 0.01 mg/mL human recombinant insulin (both purchased from Sigma-Aldrich) and 10% fetal bovine serum (FBS, BioWest, Nuaillé, France). Human colon carcinoma cell lines HCT116 and HT29 (both kindly provided by the Institute of Cancer Research, Department of Medicine I, Medical University of Vienna, Austria) were cultured in McCoy’s 5a medium supplemented with 4 mM L-glutamine (both purchased from Sigma-Aldrich) and 10% FBS. MCF-7 human breast adenocarcinoma cells (kindly provided by M. Ogris, Department of Pharmaceutical Sciences, University of Vienna, Austria) were maintained in DMEM (high glucose) supplemented with 4 mM L-glutamine, 0.1 mg/mL human insulin (all purchased from Sigma-Aldrich) and 10% FBS. All cell lines were grown as monolayers in 75 cm^2 culture flasks (CytoOne, Starlab, Hamburg, Germany) at 37 °C in a humidified atmosphere containing 5% CO2.
Exponentially growing cells were plated into 96-well microculture plates (CytoOne, tissue culture treated, Starlab, Hamburg, Germany) in densities of 1 × 10^3 CH1/PA-1, 2 × 10^3 SW480, 3 × 10^3 A549 and 7 × 10^3 IMR-90 cells per well (each in 100 µL). After a 24 h preincubation, drugs were added in serial dilution to give a final volume of 200 µL/well and exposed for 96 h. At the end of the exposure, the drug solutions were replaced by 100 µL RPMI 1640/MTT mixture (7:1 ratio). MTT (3-(4,5-dimethylthiazol-2-yl)-2,5-diphenyl-2H-tetrazolium bromide), (Acros Organics, Geel, Belgium) solution was prepared in phosphate-buffered saline (5 mg/mL) and mixed with RPMI1640 medium supplemented with 4 mM L-glutamine (both from Sigma-Aldrich) and 10% FBS. After 4 h incubation, the formazan crystals were solubilized in 150 µL of DMSO per well. Absorbance was measured at 550 nm (and at 690 nm as a reference) with a microplate reader (ELx808, BioTek, Winoosky, VT, USA) and Gen5^TM 3.08 software (BioTek). The 50% inhibitory concentrations (IC50) relative to untreated controls were interpolated from concentration-effect curves. At least three biologically and technically independent experiments were performed.

HCT116 cells [2] = test: Resazurin assay, HCT116 2D monolayer; type: cell-based, human; conditions: 96 h
Method: as §1
(§2) For the resazurin assay in monolayer cultures, cells were seeded into 96-well microculture plates (CytoOne, tissue culture treated, Starlab, Hamburg, Germany) in densities of 2 × 10^3 HCT116, 2 × 10^3 HT29 and 4 × 10^3 MCF-7 cells per well (each in 100 µL). For tests in 3D cultures, spheroids were grown as described above. After 24 h (for monolayers) or 4 days (for spheroids) the test compounds in the appropriate medium were added in serial dilution to the plates to obtain a total volume of 200 µL/well. Wells without cells, containing medium and resazurin (Alfa Aesar, Thermo Fisher, Kandel, Germany) solution were used as blanks. After 96 h exposure 20 µL of the resazurin solution (440 µM) were added to each well, followed by a 4 h (2D) or 12 h (3D) incubation period. Resorufin fluorescence was quantified at 530 nm (and a reference wavelength of 620 nm) by using a microplate reader (Synergy HT, BioTek) with Gen5^TM 3.10 software (BioTek).

[3] = system: HT29 multicellular tumor spheroids; test: Resazurin assay, HT29 3D spheroids; type: cell-based, human; conditions: 96 h; for IC50: spheroids
Method: as §1
For growing multicellular tumor spheroids, 400 HCT116, 400 HT29 or 800 MCF-7 cells per well were plated into round-bottom ultra-low attachment 96-well plates (Corning, Glendale, AZ, USA) in the media described above and incubated at 37 °C for 96 h. Spheroids were treated with 10 µM of the two most cytotoxic compounds 3 and 4 for another 96 h. The diameters of the spheroids were measured with Cell^F software under a CKX41 Olympus microscope before treatment and in constant daily intervals over the 96 h treatment period. For statistical analysis the t-test with Welsh’s correction was implemented in GraphPad Prism software (Version 6.01).
as §2

MCF-7 cells = test: Resazurin assay, MCF-7 2D monolayer; type: cell-based, human; conditions: 96 h
Method: as §1, §2

[4] = Solubility in PBS (1% DMSO); type: physicochemical
Method: Stock solutions in DMSO of compounds 1–10 were utilized to determine the solubility in PBS by adding 1 vol% of the stock solution to a suitable amount of PBS. […] UV/Vis data were recorded on a Perkin Elmer Lambda 650 UV/Vis Spectrophotometer with a Peltier element for temperature control.

HCT116 cells [5] = test: Annexin V-FITC/PI apoptosis assay, HCT116; type: cell-based, human; conditions: HCT116, 24 h, 200 µM; for ∑apoptotic cells [%]: sum of early and late
HT29 cells = test: Annexin V-FITC/PI apoptosis assay, HT29; conditions: HT29, 24 h, 200 µM; for ∑apoptotic cells [%]: sum of early and late

SMILES	IC50 [1]	IC50 (HCT116 cells [2])	IC50 [3]	IC50 (MCF-7 cells)	Solubility in PBS (1% DMSO) [4]	early apoptotic cells [%] AV+ / PI- (HCT116 cells [5])	late apoptotic cells [%] AV+ / PI+ (HCT116 cells [5])	necrotic cells [%] AV- / PI+ (HCT116 cells [5])	viable cells [%] AV- / PI- (HCT116 cells [5])	∑apoptotic cells [%] (HCT116 cells [5])	early apoptotic cells [%] AV+ / PI- (HT29 cells)	late apoptotic cells [%] AV+ / PI+ (HT29 cells)	necrotic cells [%] AV- / PI+ (HT29 cells)	viable cells [%] AV- / PI- (HT29 cells)	∑apoptotic cells [%] (HT29 cells)	ratio 3D/2D of IC50 values, HT29 [3]
Cc1cc(=O)c([O-])co1.F[P-](F)(F)(F)(F)F.[W+4].c1cc[cH-]c1.c1cc[cH-]c1 [Compound 7, Bis(η^5-cyclopentadienyl)[2-methyl-5-(oxo-κO)-4-(1H)-pyran-4-ato-κO] tungsten(IV) hexafluorophosphate]	152 ± 16 µM	> 200 µM	> 200 µM	> 200 µM	0.35 mg/mL	4.5 ± 1.8%	13.7 ± 8.2%	3.6 ± 0.9%	78.2 ± 9.3%	18.2%	3.0 ± 1.6%	5.5 ± 1.9%	3.1 ± 2.3%	88.4 ± 3.8%	8.5%	
Cc1cc(=S)c([O-])co1.F[P-](F)(F)(F)(F)F.[W+4].c1cc[cH-]c1.c1cc[cH-]c1 [Compound 8, Bis(η^5-cyclopentadienyl)[2-methyl-5-(oxo-κO)-pyran-4-(1H)-thionato-κS] tungsten(IV) hexafluorophosphate]	93 ± 15 µM	> 200 µM	> 200 µM	163 ± 32 µM	0.41 mg/mL	5.5 ± 2.0%	12.4 ± 2.4%	2.8 ± 1.3%	79.4 ± 3.5%	17.9%	3.3 ± 2.1%	6.2 ± 4.1%	2.1 ± 0.9%	88.4 ± 3.6%	9.5%	
CCc1occc(=O)c1[O-].F[P-](F)(F)(F)(F)F.[W+4].c1cc[cH-]c1.c1cc[cH-]c1 [Compound 9, Bis(η^5-cyclopentadienyl)[2-ethyl-3-(oxo-κO)-4-(1H)-pyran-4-ato-κO] tungsten(IV) hexafluorophosphate]	> 200 µM	> 200 µM	> 200 µM	147 ± 15 µM	0.55 mg/mL	1.5 ± 0.8%	2.3 ± 0.3%	2.3 ± 0.4%	93.9 ± 0.5%	3.8%	0.9 ± 0.6%	3.9 ± 4.5%	2.3 ± 1.3%	92.9 ± 5.8%	4.8%	
CCc1occc(=S)c1[O-].F[P-](F)(F)(F)(F)F.[W+4].c1cc[cH-]c1.c1cc[cH-]c1 [Compound 10, Bis(η^5-cyclopentadienyl)[2-ethyl-3-(oxo-κO)-4-(1H)-pyran-4-thionato-κS] tungsten(IV) hexafluorophosphate]	21 ± 1 µM	42 ± 3 µM	> 200 µM	29 ± 4 µM	0.32 mg/mL	3.8 ± 3.2%	4.3 ± 3.6%	2.4 ± 0.7%	89.6 ± 7.5%	8.0%	3.1 ± 2.8%	5.1 ± 5.2%	2.3 ± 0.9%	89.5 ± 8.5%	8.2%	> 3.7
